Data as given in patent US10335403B2, “Niacin formulation” (Zeenar Enterprises Pty Ltd., priority 2013, dated 2019).

System: PGE2 production in 3T3 cells
Assay: PGE2 inhibition in 3T3 cells stimulated with calcium ionophore (Cayman PGE2 monoclonal EIA kit)
Assay type: cell-based
Details: Mus musculus, NIH3T3, at 0.488 μg/mL, relative to control cells not exposed, read-out: highest PGE2 inhibition observed
Description: As is known in the art, prostaglandin E2 (PGE2) activity can be used to measure anti-inflammatory activity of a substance. PGE2 inhibitory activity can be measured by the ability of test samples to inhibit PGE2 production in 3T3 cells when stimulated with calcium ionophore. As understood in the art, aspirin and ibuprofen may be included in the assay as a positive control. The in vitro production of PGE2 from 3T3 cells was measured using the Cayman Chemical Prostaglandin E2 monoclonal EIA (Enzyme Immuno Assay) kit. The cells were exposed to extracts derived from dunder and molasses and stimulated with calcium ionophore. The cell supernatants were then assayed for PGE2 production. The cell cytotoxicity of the samples was tested against 3T3 cells to confirm that the observed PGE2 inhibition was not due to cell cytotoxicity. Aspirin and ibuprofen were used as positive controls.

CC(C)Cc1ccc(C(C)C(=O)O)cc1 (stereo not shown) [ibuprofen]
inhibition at 0.488 µg/mL: 42.1%
